Blank lines part the entries; values can stand above or below the compound they belong to. Activity calls are given as the source filed them.
What was measured:
[1] = MC4R antagonists, dose response, counter-screen for LGR2 antagonist project, cell-based, plate reader, cherry pick (AID 743444); format: functional;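 further: transfected HEK 293 cells stimulated with alpha-MSH peptide; potency of inhibitors of the alpha-MSH evoked signal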
[2] = LGR2 antagonists, dose response, cell-based, HEK293, CRE-luciferase reporter, cherry pick, set 2 (AID 743343); format: functional;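 further: transfected cells were stimulated with diluted bursicon conditioned medium after compound addition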
[3] = HepG2 cell cytotoxicity, dose response, cytotoxicity control, plate reader, cherry-pick, antagonist series (AID 743416); format: functional, cell-based
[4] = biological target: Acyl-homoserine lactone acylase PvdQ (Pseudomonas aeruginosa (strain LESB58), UniProt Q9I194); test: P. aeruginosa PvdQ acylase inhibitors, dose response, biochemical, fluorescence, plate reader and imaging, cherry-picks (AID 493231)
[5] = A549 cell cytotoxicity, dose response, cytotoxicity control, plate reader, cherry-pick, antagonist series (AID 743412); format: functional, cell-based
[6] = HEK293 cell cytotoxicity, dose response, cytotoxicity control, plate reader, cherry-picked samples (AID 743446); format: functional, cell-based
[7] = biological target: T1, Voltage-gated N-type calcium channel alpha-1B subunit/Amyloid beta A4 precursor protein-binding family A member 1 (Homo sapiens, UniProt Q00975+Q02410); test: disruptors of Mint-PDZ/N-type channel peptide interaction – biochemical, HTRF, set 2, SAR follow-up (AID 434980); format: functional
T1 sequence (Q00975 whole entry): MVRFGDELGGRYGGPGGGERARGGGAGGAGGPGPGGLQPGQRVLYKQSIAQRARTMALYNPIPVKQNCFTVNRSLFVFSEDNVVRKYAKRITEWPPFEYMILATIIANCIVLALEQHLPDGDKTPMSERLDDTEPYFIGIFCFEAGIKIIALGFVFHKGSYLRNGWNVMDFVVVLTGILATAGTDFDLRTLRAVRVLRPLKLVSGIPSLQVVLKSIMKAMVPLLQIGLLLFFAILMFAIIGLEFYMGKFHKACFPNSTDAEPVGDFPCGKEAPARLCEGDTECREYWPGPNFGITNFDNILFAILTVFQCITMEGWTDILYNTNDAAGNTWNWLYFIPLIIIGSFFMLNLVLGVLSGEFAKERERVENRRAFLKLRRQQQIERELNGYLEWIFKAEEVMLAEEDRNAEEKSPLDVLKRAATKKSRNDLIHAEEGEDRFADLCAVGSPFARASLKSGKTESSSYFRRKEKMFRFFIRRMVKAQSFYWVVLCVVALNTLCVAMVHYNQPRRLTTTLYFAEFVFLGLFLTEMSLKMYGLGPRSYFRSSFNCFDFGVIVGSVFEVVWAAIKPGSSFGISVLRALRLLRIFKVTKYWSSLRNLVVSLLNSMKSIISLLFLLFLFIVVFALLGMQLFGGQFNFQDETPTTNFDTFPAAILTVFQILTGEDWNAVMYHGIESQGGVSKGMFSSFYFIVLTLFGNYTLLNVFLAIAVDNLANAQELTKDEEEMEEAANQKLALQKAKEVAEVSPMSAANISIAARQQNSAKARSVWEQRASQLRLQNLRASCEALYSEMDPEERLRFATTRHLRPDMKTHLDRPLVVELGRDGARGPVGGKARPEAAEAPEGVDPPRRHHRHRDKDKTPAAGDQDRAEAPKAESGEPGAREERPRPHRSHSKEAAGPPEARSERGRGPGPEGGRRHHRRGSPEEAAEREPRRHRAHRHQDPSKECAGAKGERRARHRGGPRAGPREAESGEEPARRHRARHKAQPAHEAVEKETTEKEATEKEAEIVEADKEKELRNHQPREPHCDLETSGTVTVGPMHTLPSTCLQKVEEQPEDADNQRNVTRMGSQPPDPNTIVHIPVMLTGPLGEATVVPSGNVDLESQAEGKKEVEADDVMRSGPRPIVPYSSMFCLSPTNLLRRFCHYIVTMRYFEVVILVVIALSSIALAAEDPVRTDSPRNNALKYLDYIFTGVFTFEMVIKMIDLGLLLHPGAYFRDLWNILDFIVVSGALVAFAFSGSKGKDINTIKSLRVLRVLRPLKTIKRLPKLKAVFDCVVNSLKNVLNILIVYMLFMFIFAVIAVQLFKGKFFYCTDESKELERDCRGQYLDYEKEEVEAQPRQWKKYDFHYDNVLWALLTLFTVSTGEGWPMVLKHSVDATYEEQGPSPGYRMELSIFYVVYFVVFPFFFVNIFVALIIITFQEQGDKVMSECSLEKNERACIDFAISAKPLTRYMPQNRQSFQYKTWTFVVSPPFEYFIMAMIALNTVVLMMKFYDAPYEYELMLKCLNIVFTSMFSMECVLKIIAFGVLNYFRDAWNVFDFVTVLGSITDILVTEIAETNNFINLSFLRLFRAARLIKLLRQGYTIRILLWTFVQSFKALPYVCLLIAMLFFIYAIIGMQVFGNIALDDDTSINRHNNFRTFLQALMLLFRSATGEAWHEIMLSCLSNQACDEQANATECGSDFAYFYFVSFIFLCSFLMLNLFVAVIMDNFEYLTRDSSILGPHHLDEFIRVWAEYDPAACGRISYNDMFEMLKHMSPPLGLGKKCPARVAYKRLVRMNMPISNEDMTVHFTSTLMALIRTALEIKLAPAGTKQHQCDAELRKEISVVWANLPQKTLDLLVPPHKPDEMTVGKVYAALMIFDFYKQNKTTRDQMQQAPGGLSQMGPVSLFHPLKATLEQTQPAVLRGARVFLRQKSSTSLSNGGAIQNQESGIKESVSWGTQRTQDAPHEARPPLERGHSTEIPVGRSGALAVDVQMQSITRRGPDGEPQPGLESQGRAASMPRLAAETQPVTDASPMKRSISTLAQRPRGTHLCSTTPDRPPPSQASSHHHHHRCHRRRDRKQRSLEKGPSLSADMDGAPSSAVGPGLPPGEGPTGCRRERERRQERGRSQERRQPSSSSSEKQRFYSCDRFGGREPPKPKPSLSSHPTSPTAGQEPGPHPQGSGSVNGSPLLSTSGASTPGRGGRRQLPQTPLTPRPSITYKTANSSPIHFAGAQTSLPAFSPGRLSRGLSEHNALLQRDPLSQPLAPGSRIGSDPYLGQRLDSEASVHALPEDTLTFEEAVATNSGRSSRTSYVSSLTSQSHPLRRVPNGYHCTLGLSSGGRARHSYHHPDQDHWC
T1 sequence (Q02410 whole entry): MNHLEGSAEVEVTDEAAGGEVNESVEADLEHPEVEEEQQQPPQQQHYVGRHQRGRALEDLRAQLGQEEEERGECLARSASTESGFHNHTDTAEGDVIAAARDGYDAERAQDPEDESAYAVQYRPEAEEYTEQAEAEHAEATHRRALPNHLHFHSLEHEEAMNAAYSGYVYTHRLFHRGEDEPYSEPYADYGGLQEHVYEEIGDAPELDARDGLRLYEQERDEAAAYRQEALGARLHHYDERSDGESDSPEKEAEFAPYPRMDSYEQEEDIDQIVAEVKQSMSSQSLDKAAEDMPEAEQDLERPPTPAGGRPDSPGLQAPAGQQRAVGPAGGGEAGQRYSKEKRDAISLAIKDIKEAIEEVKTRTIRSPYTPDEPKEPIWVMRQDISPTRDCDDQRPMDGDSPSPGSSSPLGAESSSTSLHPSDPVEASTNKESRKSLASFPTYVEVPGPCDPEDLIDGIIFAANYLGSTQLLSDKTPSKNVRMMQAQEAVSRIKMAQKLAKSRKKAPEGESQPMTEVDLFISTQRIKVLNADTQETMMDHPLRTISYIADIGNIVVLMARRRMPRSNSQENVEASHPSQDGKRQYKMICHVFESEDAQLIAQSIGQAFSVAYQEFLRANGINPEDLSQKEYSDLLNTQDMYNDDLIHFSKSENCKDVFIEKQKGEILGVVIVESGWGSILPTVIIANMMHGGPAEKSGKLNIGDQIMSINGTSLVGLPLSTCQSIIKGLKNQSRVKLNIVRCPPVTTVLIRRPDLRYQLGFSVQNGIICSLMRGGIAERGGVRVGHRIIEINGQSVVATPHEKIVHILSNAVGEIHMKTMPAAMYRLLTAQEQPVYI

[8] = biological target: T1, Voltage-gated N-type calcium channel alpha-1B subunit/Amyloid beta A4 precursor protein-binding family A member 1; test: disruptors of Mint-PDZ/N-type channel peptide interaction – biochemical, HTRF, SAR follow-up (AID 2489); format: functional
[9] = cytotoxicity in BJeH fibroblasts, dose response, counter-screen for Ras selective lethality project, BJeH cells, dry powder (AID 493054); format: functional, cell-based
[10] = cytotoxicity in BJeHLT fibroblasts, dose response, counter-screen for Ras selective lethality project, BJeHLT cells, dry powder (AID 493052); format: functional, cell-based; details: Homo sapiens
[11] = biological target: Melanin-concentrating hormone receptor 1 (Homo sapiens, UniProt Q99705); test: Late-stage fluorescence-based counterscreen for antagonists of the G-protein coupled receptor 7 (GPR7): cell-based dose response assay to identify antagonists of the melanin-concentrating hormone receptor 1 (MCHR1). [Related pubchem assays (depositor defined):AID1861, AID1880, AID1952, AID2148, AID2251, AID2257, AID485339]; format: functional;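 further: stimulated with 30 nM MCH peptide agonist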
[12] = biological target: Neuropeptides B/W receptor type 1 (Homo sapiens, UniProt P48145); test: GPR7 antagonist potency, late-stage follow-up, cell-based, fluorescence, dose response (AID 463251); format: functional
[13] = biological target: Kappa-type opioid receptor (Homo sapiens, UniProt P41145); test: SAR analysis of small molecule agonists of the kappa opioid receptor via a luminescent beta-arrestin assay - Set 2. [Related pubchem assays (depositor defined):AID1777, AID1785, AID1786, AID1966, AID2133, AID2136, AID2284, AID449737]; format: functional
Chain of Kappa-type opioid receptor (P41145 whole entry): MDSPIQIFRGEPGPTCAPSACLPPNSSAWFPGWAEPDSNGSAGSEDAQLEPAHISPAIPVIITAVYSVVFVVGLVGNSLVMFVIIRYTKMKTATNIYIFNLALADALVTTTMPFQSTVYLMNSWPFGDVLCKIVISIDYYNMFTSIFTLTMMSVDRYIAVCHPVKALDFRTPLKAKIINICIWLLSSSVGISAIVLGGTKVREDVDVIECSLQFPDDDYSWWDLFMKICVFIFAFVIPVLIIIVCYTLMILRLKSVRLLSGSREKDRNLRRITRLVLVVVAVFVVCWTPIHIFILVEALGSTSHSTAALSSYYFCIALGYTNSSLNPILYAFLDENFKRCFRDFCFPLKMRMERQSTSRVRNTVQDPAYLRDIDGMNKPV

Wee1-like protein kinase = Wee1-like protein kinase (Homo sapiens, UniProt P30291); test: G2/M cell cycle arrest in HeLa, late-stage follow-up, mechanism study for Wee1 degradation inhibitor project, FACS, panel member Wee1 Degradation (AID 2088)
[14] = biological target: G2/mitotic-specific cyclin-B1 (Homo sapiens, UniProt P14635); test: G2/M cell cycle arrest in HeLa, late-stage follow-up, mechanism study for Wee1 degradation inhibitor project, FACS, panel member Cyclin B Degradation (AID 2088)
Chain of G2/mitotic-specific cyclin-B1 (P14635 whole entry): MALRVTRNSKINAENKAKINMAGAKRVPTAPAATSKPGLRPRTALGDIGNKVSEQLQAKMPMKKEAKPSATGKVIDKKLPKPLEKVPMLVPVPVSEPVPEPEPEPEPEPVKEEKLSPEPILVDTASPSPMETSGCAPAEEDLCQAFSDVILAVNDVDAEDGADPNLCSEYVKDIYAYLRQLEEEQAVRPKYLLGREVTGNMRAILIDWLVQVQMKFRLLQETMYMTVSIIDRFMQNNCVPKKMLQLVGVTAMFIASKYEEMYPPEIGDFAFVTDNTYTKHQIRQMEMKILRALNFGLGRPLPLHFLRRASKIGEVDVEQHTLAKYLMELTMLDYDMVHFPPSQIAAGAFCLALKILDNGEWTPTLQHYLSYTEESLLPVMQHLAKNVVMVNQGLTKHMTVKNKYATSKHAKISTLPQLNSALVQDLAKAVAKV

[15] = biological target: Mitogen-activated protein kinase 10 (Homo sapiens, UniProt P53779); test: Dose response biochemical screening assay for inhibitors of c-Jun N-Terminal Kinase 3 (JNK3). [Related pubchem assays: 746 ]
Chain of Mitogen-activated protein kinase 10 (P53779 whole entry): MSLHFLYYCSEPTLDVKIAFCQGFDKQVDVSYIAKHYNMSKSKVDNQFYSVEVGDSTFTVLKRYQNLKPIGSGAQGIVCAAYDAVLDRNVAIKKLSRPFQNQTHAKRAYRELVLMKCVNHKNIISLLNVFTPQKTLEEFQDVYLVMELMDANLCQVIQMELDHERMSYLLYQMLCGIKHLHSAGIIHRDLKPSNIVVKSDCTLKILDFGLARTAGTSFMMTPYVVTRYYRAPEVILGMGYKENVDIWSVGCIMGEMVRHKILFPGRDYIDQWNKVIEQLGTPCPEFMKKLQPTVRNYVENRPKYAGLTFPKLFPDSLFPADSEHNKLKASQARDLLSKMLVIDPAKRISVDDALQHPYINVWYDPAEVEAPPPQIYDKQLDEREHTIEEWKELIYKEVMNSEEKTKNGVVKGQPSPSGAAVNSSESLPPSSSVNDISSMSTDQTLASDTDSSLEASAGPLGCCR

[16] = biological target: Lysosomal acid glucosylceramidase (Homo sapiens, UniProt P04062); test: Dose response cell-based high throughput screening assay to identify enhancers of beta-glucosidase activity. [Related pubchem assays: 784 ]; format: functional
Chain of Lysosomal acid glucosylceramidase (P04062 whole entry): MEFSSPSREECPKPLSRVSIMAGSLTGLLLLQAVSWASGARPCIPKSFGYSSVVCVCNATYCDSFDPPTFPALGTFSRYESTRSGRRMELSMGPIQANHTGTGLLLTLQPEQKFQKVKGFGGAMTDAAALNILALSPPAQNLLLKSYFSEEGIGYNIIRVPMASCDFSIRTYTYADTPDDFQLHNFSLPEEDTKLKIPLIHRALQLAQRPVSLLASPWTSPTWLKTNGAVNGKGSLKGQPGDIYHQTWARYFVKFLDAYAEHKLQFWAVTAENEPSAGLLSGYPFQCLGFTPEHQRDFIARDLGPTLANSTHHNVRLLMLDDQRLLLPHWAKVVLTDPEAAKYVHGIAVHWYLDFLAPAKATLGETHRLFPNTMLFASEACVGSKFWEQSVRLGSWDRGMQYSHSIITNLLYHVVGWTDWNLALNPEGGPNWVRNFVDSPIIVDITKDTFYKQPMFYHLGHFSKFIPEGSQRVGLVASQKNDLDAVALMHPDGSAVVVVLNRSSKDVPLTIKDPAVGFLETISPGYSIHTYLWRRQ

[17] = polyadenylation inhibitors in yeast reporter, dose response, luminescence, S. cerevisiae SKY197-pL101 (AID 2525); format: functional, cell-based

Structure (SMILES): CCOc1ccc(-c2cn3ccccc3n2)cc1
AC50 [1]: 4.5 µM (active)
AC50 [2]: 5.05 µM (active)
AC50 [3]: > 52 µM (inactive)
AC50 [4]: 92.1 µM (active)
AC50 [5]: > 52 µM (inactive)
AC50 [6]: > 52 µM (inactive)

Structure (SMILES): COc1ccc(N(C(=O)[C@@H](C)Cl)C(C(=O)NCCc2ccccc2)c2cccs2)cc1Cl (stereo partly drawn)
AC50 [9]: > 454 µM (inactive)
AC50 [10]: > 454 µM (inactive)

Structure (SMILES): CC(C)c1ccc(-n2ncc(Cl)c(Oc3ccc(N)cc3)c2=O)cc1
IC50 [11]: 7 µM (active)
IC50 [12]: 2.5 µM (active)

Structure (SMILES): CCN1/C(=C/C=C/c2sc3ccccc3[n+]2CC)Sc2ccccc21 [ALAZANINE]
EC50 [17]: 243 µM (active)

Second part, the compound after the results:

IC50 [7]: > 56.8 µM (inactive)
IC50 [8]: > 56.8 µM (inactive)
Structure (SMILES): COc1cccc(CCNC(=O)c2cc(-c3ccco3)nc3ccccc23)c1

EC50 [13]: > 20 µM (inactive)
Structure (SMILES): O=C(CN(Cc1cccs1)C(=O)c1ccccn1)NC1CCCCCC1

EC50 (Wee1-like protein kinase): > 49.7 µM (inactive)
EC50 [14]: > 49.7 µM (inactive)
Structure (SMILES): CCc1ccc(NC(=O)CCCOc2cc(=O)n(C)c3ccccc23)cc1

IC50 [15]: > 93.1 µM (not active)
EC50 [16]: > 50 µM (not active)
Structure (SMILES): Cc1ccnc(Nc2nc(-c3c(C)nc4sccn34)cs2)c1
